Where two headings read alike, the source gives them in different places.
Tests used:
[1] = tested on: HT-29 and Caco-2 cells; test: Annexin V/propidium iodide apoptosis and caspase dependence (Z-VAD-FMK) in HT-29 and Caco-2; format: cell-based, human; settings: for Kinetics of induction of cell death and apoptosis: time courses of PI and Annexin V incorporation, HT-29 and Caco-2, 5 and 10 µM
Method: Cells were plated at a density of 20,000 cells/well into 96-well plates (PerkinElmer; #6055302) and incubated overnight at 37 °C before the addition of the drugs. One hour prior to imaging, Hoechst 33342 (Invitrogen, #H3570) and propidium iodide (Invitrogen; #P3566) were added to the wells to achieve final concentrations of 50 ng/ml and 0.5 μg/ml, respectively. To measure apoptosis, AlexaFluor 488-conjugated Annexin V (ThermoFisher, Massachusetts, USA; #A13201) was also added at a dilution of 1:400 from the commercial stock. A high-content imaging system (PerkinElmer; Operetta CLS), was used to quantify cell death and apoptosis by calculating the number of propidium iodide-positive cells relative to Hoechst-positive cells, and the number of Annexin V-positive cells relative to Hoechst-positive cells, respectively. To assess caspase-dependent apoptosis, cells were pre-treated for 30 min with the caspase inhibitor Z-VAD-FMK (BD Biosciences, New Jersey, USA; #550377; 20 μM) or the negative control Z-FA-FMK (BD Biosciences; #550411; 20 μM) prior to the incubation of drugs.

[2] = target: T1, 14-3-3ζ:BAD-112-136F interactions (Homo sapiens, UniProt P63104); test: BRET sensor screen for disruption of 14-3-3ζ-Rluc8:BAD-112-136F-mCitrine in living NIH-3T3 cells; format: cell-based, murine; set-up: inhibition: dose or concentration left out as unconfirmed; settings: for inhibition / inhibition at 20 µM: NIH3T3, 3 h; for inhibition: NIH-3T3 cells
T1 construct: expressed in transfected cells; host or cells: NIH-3T3 fibroblasts, bi-directional pBI-CMV1 plasmid
T1 sequence (P63104 1-245): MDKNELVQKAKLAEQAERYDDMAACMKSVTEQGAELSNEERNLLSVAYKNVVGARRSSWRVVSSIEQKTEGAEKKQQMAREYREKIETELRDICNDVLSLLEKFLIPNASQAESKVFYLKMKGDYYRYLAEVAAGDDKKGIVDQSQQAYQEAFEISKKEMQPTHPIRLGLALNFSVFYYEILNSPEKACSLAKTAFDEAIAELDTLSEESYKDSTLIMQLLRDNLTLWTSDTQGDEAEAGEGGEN
Outline: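 NIH-3T3 cells were transfected with the BRET sensor two days beforehand, then replated on poly-L-ornithine-coated plates and grown 24 h at 37 °C. Medium was then replaced with Krebs buffer (pH 7.4). Z′-score was calculated to judge HTS robustness.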

[3] = tested on: NIH-3T3 cells; test: Hoechst/propidium iodide cell death assay in NIH-3T3; format: cell-based; settings: for cytotoxicity at 20 µM: Mus musculus, NIH3T3, 24 h, 24 h, read-out: Percentage of cell death % 24h NIH3t3
Source text: (§1) A high-content imaging system (PerkinElmer; Operetta CLS), was used to quantify cell death and apoptosis by calculating the number of propidium iodide-positive cells relative to Hoechst-positive cells, and the number of Annexin V-positive cells relative to Hoechst-positive cells, respectively.

[4] = tested on: Caco-2 cells; format: cell-based
Source text: as §1

[5] = target: T2, 14-3-3ζ-Rluc8:112-136F-mC complex (Homo sapiens, UniProt P63104); test: Co-immunoprecipitation of 14-3-3ζ-Rluc8:112-136F-mC complex; format: cell-based; settings: NIH-3T3 expressing BRET sensor, 20 μM, 3 h, vs DMSO
T2 construct: expressed in transfected cells; host or cells: NIH-3T3 fibroblasts, bi-directional pBI-CMV1 plasmid
T2 sequence (P63104 1-245): T1 sequence (P63104 1-245)
Method: NIH-3T3 cells were plated in 10 cm culture dishes at a density of 550,000 cells per dish. Transfection was conducted 48 h post-seeding. At 48 h post-transfection, DMSO or FTY-720 (20 μM) was added to the culture media and incubated with cells expressing the BRET-sensor for 3 h. Cell lysates were collected using RIPA buffer (0.9% NaCl, 1% v/v triton X-100, 0.5% sodium deoxycholate, 0.1% SDS, and 0.6% tris base), supplemented with protease inhibitor cocktail (Sigma-Aldrich; #P8340). The protein concentration was determined using the Bradford assay. Equal amounts of protein (100 μg) were subjected to immunoprecipitation using 1 μg anti-GFP antibody per sample (Invitrogen; #A-11120) and protein A/G magnetic beads (Thermo Fisher Scientific, Massachusetts, USA; #80104G), according to the manufacturer’s instructions. Antibodies against GFP were used to precipitate mCitrine due to the high degree of sequence homology. Immunoprecipitated proteins were eluted by boiling the beads in 1 X Laemmli protein sample buffer (Bio-Rad, California, USA; #1610747) for 5 min. Eluted samples were resolved in 10% SDS-PAGE gels and transferred to PVDF membranes (Bio-Rad, California, USA; #10026933) using the Trans-Blot Turbo transfer system (Bio-Rad). […] Protein bands were detected using Clarity Max western ECL substrate. […]

[6] = hits from the primary screen, read-out: BRET reduction on NIH-3T3
[7] = NIH-3T3 expressing BRET sensor, 20 µM, 3 h, read-out: BRET reduction on NIH-3T3
[8] = lomitapide-treated Caco-2 cells, 10 μM, 48 h

OC1(c2ccc(Cl)c(C(F)(F)F)c2)CCN(CCCC(c2ccc(F)cc2)c2ccc(F)cc2)CC1 [Penfluridol]
Kinetics of induction of cell death and apoptosis [1]: more rapidly than lomitapide
inhibition [2, 6]: 53.8%
inhibition at 20 µM [2, 7]: 53.8%
cytotoxicity at 20 µM [3]: 85.7%
Percentage of cell death % 48h, NIH3T3 [3]: 79.942%
%Cell death Caco-2 ([4]; Caco-2): 90.0%

CCCCCCCCc1ccc(CCC(N)(CO)CO)cc1 [Fingolimod (FTY720), Fingolimod]
Abundance of 14-3-3ζ-Rluc8 within the co-immunoprecipitated complex [5]: reduced
inhibition at 20 µM ([2]; read-out: BRET reduction on NIH-3T3, NIH-3T3 cells, hits from the primary screen): 34.9%
inhibition at 20 µM ([2]; read-out: BRET reduction on NIH-3T3, NIH-3T3 expressing BRET sensor, 20 µM, 3 h): 34.9%
Effect on BRET, dose-response ([2]; NIH-3T3 expressing BRET sensor, 3 h post-treatment): significantly reduced BRET in a dose-dependent manner
cytotoxicity at 20 µM [3]: 89.8%
Percentage of cell death % 48h, NIH3T3 [3]: 86.4299%
%Cell death Caco-2 ([4]; Caco-2): 67.9%

O=C(NC1CCN(CCCCC2(C(=O)NCC(F)(F)F)c3ccccc3-c3ccccc32)CC1)c1ccccc1-c1ccc(C(F)(F)F)cc1 [Lomitapide]
Effect of Z-VAD-FMK on annexin V incorporation [1, 8]: preventing annexin V incorporation
inhibition [2, 6]: 40.8%
inhibition at 20 µM [2, 7]: 40.8%
cytotoxicity at 20 µM [3]: 90.2%
Percentage of cell death % 48h, NIH3T3 [3]: 77.6841%
Percentage of cell death % 24h CACO-2 ([4]; 20 µM, 24 h): 66.0871%
Percentage of cell death % 48h, Caco-2 ([4]; Caco-2, 48h, 20 μM): 81.7295%
%Cell death Caco-2 ([4]; Caco-2, time not given, text says 48 h): 81.7%
Effect of Z-VAD-FMK on propidium iodide incorporation [4, 8]: no effect

CC(C)(C)c1ccc(C(O)CCCN2CCC(C(O)(c3ccccc3)c3ccccc3)CC2)cc1 (stereo not shown) [Terfenadine]
Kinetics of induction of cell death and apoptosis [1]: more rapidly than lomitapide
inhibition [2, 6]: 45.6%
inhibition at 20 µM [2, 7]: 45.6%
cytotoxicity at 20 µM [3]: 85.2%
Percentage of cell death % 48h, NIH3T3 [3]: 73.0215%
%Cell death Caco-2 ([4]; Caco-2): 79.7%

From publication PMC12603070, “A high-throughput screening approach to discover potential colorectal cancer chemotherapeutics: repurposing drugs to identify novel disruptors of 14-3-3 proteins” (Cell Death & Disease, 2025)
